Test results as given in patent publication US20250296928A1, “A SYNTHESIS SCHEME AND PROCEDURES FOR PREPARING A SIK3 INHIBITOR AND INTERMEDIATES THEREOF” (iOmx Therapeutics AG, priority 2021, published 2025).
Each block holds one compound with its values, some of them ahead of it.

Tests used:
NFKB activity (MC38) = assay: TNF-induced NFKB activity in MC38 cells; type: cell-based, mouse; settings: for Inhibition of NFKB activity (MC38): TNF-induced, 10 ng/ml rMuTNF; for Inhibition of NFKB activity: summary Table 4.3, cell line not stated
Method: TNF-induced NFKB activity in MC38 cells was measured analogously to the assay in PANC-1 cells described in connection with Example 9.2 (Table 9C) of WO2020/083926), except that 10 ng/ml rMuTNF was used.

NFKB activity (PANC-1) = assay: TNF-induced NFKB activity in PANC-1 cells; type: cell-based
HDAC4 phosphorylation = assay: TNF-induced phosphorylation of HDAC4; type: cell-based; settings: for Inhibition of HDAC4 phosphorylation: TNF-induced; for Inhibition of HDAC phosphorylation: summary Table 4.3
[1] = Screening PK in mice, 30 mg/kg po; type: in vivo
[2] = Human liver microsomal stability; type: in vitro ADME
[3] = Mouse liver microsomal stability; type: in vitro ADME
[4] = Human plasma-protein binding; type: in vitro ADME; settings: for fraction unbound: human, plasma
[5] = Murine plasma protein binding; type: in vitro ADME, mouse
[6] = Full pharmacokinetic study with oral administration in mice; type: in vivo
[7] = Human hepatocyte stability; type: in vitro ADME; settings: for clearance classification: from human hepatocyte stability
[8] = Mouse hepatocyte stability; type: in vitro ADME
MDCK-MDR1 cells (P-gp) = assay: Permeability and efflux in MDCK-MDR1 cells; type: in vitro ADME
MDCK-wild type cells = assay: Permeability and efflux in MDCK-wild type cells
MC38 cells = assay: MC38 syngeneic tumour model, in-vivo anti-cancer efficacy
SIK3 = target: T1, SIK3 (Homo sapiens, UniProt Q9Y2K2); assay: Radiometric protein kinase assay (33PanQinase Activity Assay), SIK3; type: biochemical
T1 construct: purchased ProQuinase, Freiburg, Germany
T1 sequence (Q9Y2K2 whole entry): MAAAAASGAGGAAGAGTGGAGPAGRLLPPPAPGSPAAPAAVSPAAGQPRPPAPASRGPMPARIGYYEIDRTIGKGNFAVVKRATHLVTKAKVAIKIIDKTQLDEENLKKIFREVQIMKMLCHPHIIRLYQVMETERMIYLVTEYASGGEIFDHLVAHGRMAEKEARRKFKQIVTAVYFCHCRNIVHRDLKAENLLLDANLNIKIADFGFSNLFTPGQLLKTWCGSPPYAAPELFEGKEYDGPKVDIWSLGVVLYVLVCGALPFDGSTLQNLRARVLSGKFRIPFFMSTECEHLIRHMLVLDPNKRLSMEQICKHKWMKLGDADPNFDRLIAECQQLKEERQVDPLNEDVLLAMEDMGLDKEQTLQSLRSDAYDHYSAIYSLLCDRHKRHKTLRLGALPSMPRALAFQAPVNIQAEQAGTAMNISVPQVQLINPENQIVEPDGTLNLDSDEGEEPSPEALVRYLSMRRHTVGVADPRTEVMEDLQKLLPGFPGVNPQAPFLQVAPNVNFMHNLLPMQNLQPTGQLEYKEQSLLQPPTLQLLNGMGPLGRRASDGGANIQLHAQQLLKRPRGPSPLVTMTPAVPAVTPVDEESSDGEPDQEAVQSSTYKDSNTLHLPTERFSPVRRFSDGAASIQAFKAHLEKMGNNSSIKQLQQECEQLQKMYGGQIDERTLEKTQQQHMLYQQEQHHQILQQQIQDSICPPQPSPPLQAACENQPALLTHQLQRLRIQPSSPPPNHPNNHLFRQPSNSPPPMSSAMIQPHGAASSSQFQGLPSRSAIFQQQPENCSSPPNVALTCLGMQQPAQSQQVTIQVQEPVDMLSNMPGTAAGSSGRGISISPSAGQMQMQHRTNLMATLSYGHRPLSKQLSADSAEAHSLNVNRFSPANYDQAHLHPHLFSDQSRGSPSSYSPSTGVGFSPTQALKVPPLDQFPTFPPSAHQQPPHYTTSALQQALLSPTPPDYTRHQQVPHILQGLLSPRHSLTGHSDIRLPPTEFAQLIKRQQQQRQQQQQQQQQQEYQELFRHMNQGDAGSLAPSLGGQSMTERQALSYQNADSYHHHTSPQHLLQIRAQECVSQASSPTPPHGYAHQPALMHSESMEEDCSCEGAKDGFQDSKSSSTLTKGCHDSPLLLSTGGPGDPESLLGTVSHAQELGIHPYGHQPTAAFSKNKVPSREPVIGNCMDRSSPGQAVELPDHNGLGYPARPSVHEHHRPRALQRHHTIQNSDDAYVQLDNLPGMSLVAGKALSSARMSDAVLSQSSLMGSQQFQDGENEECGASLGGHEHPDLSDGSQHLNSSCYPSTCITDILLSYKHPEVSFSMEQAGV
Method: (§1) Incorporation of 33Pi was determined with a microplate scintillation counter (Microbeta, Wallac).

SIK2 = target: T2, SIK2 (Homo sapiens, UniProt Q9H0K1); assay: Radiometric protein kinase assay (33PanQinase Activity Assay), SIK2; type: biochemical; settings: ATP 1.0 μM
T2 construct: purchased ProQuinase, Freiburg, Germany
T2 sequence (Q9H0K1 whole entry): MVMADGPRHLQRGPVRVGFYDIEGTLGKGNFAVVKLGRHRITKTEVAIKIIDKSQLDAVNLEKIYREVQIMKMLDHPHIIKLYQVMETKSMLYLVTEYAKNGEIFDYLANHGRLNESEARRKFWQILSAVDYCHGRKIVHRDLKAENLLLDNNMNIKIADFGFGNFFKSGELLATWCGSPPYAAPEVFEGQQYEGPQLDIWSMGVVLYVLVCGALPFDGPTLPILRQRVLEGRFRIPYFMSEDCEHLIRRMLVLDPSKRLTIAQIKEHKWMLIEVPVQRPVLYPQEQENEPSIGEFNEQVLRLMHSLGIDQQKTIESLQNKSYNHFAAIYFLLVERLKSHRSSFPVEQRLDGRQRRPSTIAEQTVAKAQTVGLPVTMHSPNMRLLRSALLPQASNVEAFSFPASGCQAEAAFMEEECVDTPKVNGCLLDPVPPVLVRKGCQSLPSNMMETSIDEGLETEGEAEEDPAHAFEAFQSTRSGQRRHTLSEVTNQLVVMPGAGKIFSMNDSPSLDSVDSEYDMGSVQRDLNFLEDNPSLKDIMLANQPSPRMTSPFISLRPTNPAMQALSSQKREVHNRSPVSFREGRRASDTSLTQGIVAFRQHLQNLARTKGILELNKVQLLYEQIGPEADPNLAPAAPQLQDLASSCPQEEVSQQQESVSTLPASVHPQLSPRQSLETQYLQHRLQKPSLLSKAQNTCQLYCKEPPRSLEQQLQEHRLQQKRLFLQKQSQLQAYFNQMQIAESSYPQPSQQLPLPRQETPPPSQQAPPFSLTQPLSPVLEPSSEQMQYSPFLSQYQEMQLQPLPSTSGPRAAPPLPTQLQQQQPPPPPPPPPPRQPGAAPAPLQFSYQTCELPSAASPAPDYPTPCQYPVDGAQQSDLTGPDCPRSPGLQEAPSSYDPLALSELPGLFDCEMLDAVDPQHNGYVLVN
Method: as §1

P-gp (MDR1) = assay: Permeability and efflux in MDCK-MDR1 cells; type: in vitro ADME; settings: dog
[9] = tested on: MC38 syngeneic tumour model; assay: MC38 syngeneic tumour model, comparative study E9 versus dasatinib (FIG. 5); type: in vivo, mice; settings: 25 mg/kg BID
in vitro = settings: dog, MDCK
[10] = mice, 30 mg/kg po, Free plasma concentration
[11] = mice, 30 mg/kg po, Total plasma concentration
[12] = Total plasma concentration at 30 mg/kg p.o dose, C7 = 1x
[13] = mouse, plasma, mice, 30 mg/kg po, Free

Cmax ([1]; mouse, plasma, 30 mg/kg po, 2 h): 550 ng/mL
Structure (SMILES): Cc1nc(Nc2ncc(C(=O)Nc3c(C)cccc3Cl)s2)cc(N2CCN(CCO)CC2)n1 [Compound A8, N-(2-chloro-6-methylphenyl)-2-[[6-[4-(2-hydroxyethyl)-1-piperazinyl]-2-methyl-4-pyrimidinyl]amino]-5-thiazolecarboxamide]
Inhibition of NFKB activity (MC38) (NFKB activity (MC38)): +
Inhibition of NFKB activity (PANC-1) (NFKB activity (PANC-1)): +
Inhibition of HDAC4 phosphorylation (HDAC4 phosphorylation): ++

Human liver microsomal stability: Half-life ([2]; human liver microsomes): 58 min
Human liver microsomal stability: Intrinsic clearance ([2]; human liver microsomes): 24 µL/min/mg
Mouse liver microsomal stability: Half-life ([3]; mouse liver microsomes): 62 min
Mouse liver microsomal stability: Intrinsic clearance ([3]; mouse liver microsomes): 22 µL/min/mg
Human plasma-protein binding: Percentage unbound [4]: 7%
Murine plasma protein binding: Percentage unbound ([5]; murine plasma): 11%
Cmax after 2 h ([1]; 30 mg/kg po, 2 h): 56 ng/mL
Free plasma concentration after 6 h ([1]; 30 mg/kg po, 6 h, free): 3 nM
Plasma concentration after 6 h ([1]; 30 mg/kg po, 6 h, total): 29 nM
Tmax ([6]; mice, 30 mg/kg po, Free): 30 min
t1/2 ([6]; mice, 30 mg/kg po, Free): 144 min
Cmax [6, 10]: 10.7 ng/mL
% AUCextrap ([6]; mice, 30 mg/kg po, Total): 14%
AUCinf ([6]; mice, 30 mg/kg po, Total): 697 nM·h
AUClast ([6]; mice, 30 mg/kg po, Total): 589 nM·h
Tmax ([6]; mice, 30 mg/kg po, Total): 30 min
t1/2 ([6]; mice, 30 mg/kg po, Total): 144 min
Cmax [6, 11]: 99 ng/mL
Structure (SMILES): Cc1nc(Nc2ncc(C(=O)Nc3c(Cl)ccnc3C)s2)cc(N2CCN(CCO)CC2)n1 [Compound B3]

Structure (SMILES): Cc1nc(Nc2ncc(C(=O)Nc3c(C)csc3Cl)s2)cc(N2CCN(CCO)CC2)n1 [Compound C7]
Inhibition of NFKB activity (MC38) (NFKB activity (MC38)): +
Inhibition of NFKB activity (NFKB activity (MC38)): +
Inhibition of NFKB activity (PANC-1) (NFKB activity (PANC-1)): +
Inhibition of HDAC4 phosphorylation (HDAC4 phosphorylation): +
Inhibition of HDAC phosphorylation (HDAC4 phosphorylation): +
Human liver microsomal stability: Half-life ([2]; human liver microsomes): 10 min
Human liver microsomal stability: Intrinsic clearance ([2]; human liver microsomes): 142 µL/min/mg
Mouse liver microsomal stability: Half-life ([3]; mouse liver microsomes): 13 min
Mouse liver microsomal stability: Intrinsic clearance ([3]; mouse liver microsomes): 110 µL/min/mg
clearance classification [7]: medium-to-high clearance drugs
Human hepatocyte stability: Half-life ([7]; human hepatocytes): 54 min
Human hepatocyte stability: Intrinsic clearance ([7]; human hepatocytes): 26 µL/min/mg
half-life in the presence of human hepatocytes ([7]; human hepatocytes): approx. 1 h
Mouse hepatocyte stability: Half-life ([8]; mouse hepatocytes): 50 min
Mouse hepatocyte stability: Intrinsic clearance ([8]; mouse hepatocytes): 28 µL/min/mg
Human plasma-protein binding: Percentage unbound [4]: 2%
Human plasma-protein binding: Recovery at 4 h ([4]; 4 h): 75%
Murine plasma protein binding: Percentage unbound ([5]; murine plasma): 3%
Murine plasma protein binding: Recovery at 4 h ([5]; murine plasma, 4 h): 87%
Mean Papp A > B (MDCK-MDR1 cells (P-gp)): 2 10^−6 cm/s
% AUCextrap ([6]; mice, 30 mg/kg po, Free): 11.24%
AUCinf ([6]; mice, 30 mg/kg po, Free): 58.79 nM·h
AUClast ([6]; mice, 30 mg/kg po, Free): 52.07 nM·h
MRTlast ([6]; mice, 30 mg/kg po, Free): 165 min
Rsq ([6]; mice, 30 mg/kg po, Free): 0.99
Tmax ([6]; mice, 30 mg/kg po, Free): 120 min
t1/2 ([6]; mice, 30 mg/kg po, Free): 85.2 min
Cmax [6, 10]: 21.34 ng/mL
% AUCextrap ([6]; mice, 30 mg/kg po, Total): 11.24%
AUCinf ([6]; mice, 30 mg/kg po, Total): 1,306.48 nM*h
AUClast ([6]; mice, 30 mg/kg po, Total): 1,157.10 nM*h
MRTlast ([6]; mice, 30 mg/kg po, Total): 165 min
Rsq ([6]; mice, 30 mg/kg po, Total): 0.99
Tmax ([6]; mice, 30 mg/kg po, Total): 120 min
t1/2 ([6]; mice, 30 mg/kg po, Total): 85.2 min
Cmax [6, 11]: 474.16 ng/mL
Mean Papp A > B (MDCK-wild type cells): 9 10^−6 cm/s
Body weight increase (MC38 cells; 100 mg/Kg, BID, po): 1.0%
Non-treatment related death (MC38 cells; 100 mg/Kg, BID, po): 3/16
Tumour growth inhibition (MC38 cells; 100 mg/Kg, BID, po): 78%

IC50 (SIK3; ATP 1.0 μM): ~0.06 µM
Free plasma concentration after 6 h ([1]; 30 mg/kg po, 6 h, free): 8 nM
Structure (SMILES): Cc1nc(Nc2ncc(C(=O)Nc3c(C)csc3Cl)s2)cc(N2CCN(C)CC2)n1 [Compound D9]
Inhibition of NFKB activity (PANC-1) (NFKB activity (PANC-1)): +
Inhibition of HDAC4 phosphorylation (HDAC4 phosphorylation): +

IC50 (SIK2): < 0.01 µM
SIK3 IC50 (nM), relative to C7 (SIK3; relative to C7 = 1x): 0.3x
potency against SIK3 improved over C7 and D9 (SIK3; relative to C7 and D9): 2-3 times
clearance classification ([2]; from human liver microsomal stability): high clearance drugs
half-life ([2]; human liver microsomes): ~10 min
microsomal CLint ([2]; human liver microsomes, read-out: Human liver microsomal stability: Intrinsic clearance): 130 to 150 µL/min/mg
clearance classification ([3]; from mouse liver microsomal stability): high clearance drugs
half-life ([3]; mouse liver microsomes): ~10 min
microsomal CLint ([3]; mouse liver microsomes, read-out: Mouse liver microsomal stability: Intrinsic clearance): 130 to 150 µL/min/mg
clearance classification [7]: high clearance drugs
half-life ([7]; human hepatocytes): ~25 min
clearance classification ([8]; from mouse hepatocyte stability): medium clearance drug
half-life ([8]; mouse hepatocytes): ~65 min
fraction unbound ([4]; read-out: Human plasma-protein binding: Percentage unbound): 0.01
fraction unbound ([4]; read-out: human plasma protein binding): < 0.05
fraction unbound ([5]; mouse plasma): < 0.05
fraction unbound at 4 h ([5]; mouse, murine plasma, read-out: Murine plasma protein binding: Percentage unbound): 0.01
Papp A→B (P-gp (MDR1)): 5 ×10⁻⁶ cm/s
improvement for free serum concentration over C7 ([1]; 30 mg/Kg po, free): 2 fold
improvement for total serum concentration over C7 ([1]; 30 mg/Kg po, total): 4.5 fold
AUC0-last (nM*h), relative to C7 [6, 12]: 8.2x
C max (ng/ml), relative to C7 [6, 12]: 5.6x
MRT0-last (h), relative to C7 [6, 12]: 1.2x
t1/2 (h), relative to C7 [6, 12]: 2x
% AUCextrap ([6]; mice, 30 mg/kg po, Free): 0.49%
MRTlast ([6]; mice, 30 mg/kg po, Free): 203 min
Rsq ([6]; mice, 30 mg/kg po, Free): 0.84
Tmax ([6]; mice, 30 mg/kg po, Free): 15 min
t1/2 ([6]; mice, 30 mg/kg po, Free): 166 min
% AUCextrap ([6]; mice, 30 mg/kg po, Total): 0.49%
Rsq ([6]; mice, 30 mg/kg po, Total): 0.84
AUC(0-inf) [6, 13]: 0.24 µM·h
AUC(0-t) [6, 13]: 0.239 µM·h
Cmax ([6]; mouse, mice, 30 mg/kg po, Free plasma concentration, read-out: Cmax): 66.9 ng/mL
Papp A→B (in vitro): 10 ×10⁻⁶ cm/s
efflux ratio (in vitro): 20 to 30
Structure (SMILES): Cc1nc(Nc2ncc(C(=O)Nc3c(CF)csc3Cl)s2)cc(N2CCN(C)CC2)n1 [Compound E9, N-(2-chloro-4-(fluoromethyl)thiophen-3-yl)-2-((2-methyl-6-(4-methylpiperazin-1-yl)pyrimidin-4-yl)amino)thiazole-5-carboxamide]
Inhibition of NFKB activity (NFKB activity (MC38)): ++
Inhibition of HDAC4 phosphorylation (HDAC4 phosphorylation): ++
Inhibition of HDAC phosphorylation (HDAC4 phosphorylation): ++
average TGI [9]: 72%
Body weight increase (MC38 cells; 25 mg/Kg, BID, po): 16.8%
Tumour growth inhibition (MC38 cells; 25 mg/Kg, BID, po): 74%
Body weight increase (MC38 cells; 50 mg/Kg, BID, po): 18.7%
Tumour growth inhibition (MC38 cells; 50 mg/Kg, BID, po): 69%
treatment related side effects and clinical signs (MC38 cells; administered orally): no direct treatment related side effects and clinical signs
